Data published in PMC7251097, “Aspartate/asparagine-β-hydroxylase: a high-throughput mass spectrometric assay for discovery of small molecule inhibitors” (Scientific Reports, 2020).
Structures can show the parent of a compound that is named as a salt. Where two headings read alike, the source gives them in different places. Residues, ends and D or L forms follow the SMILES beside them. *: point of attachment. Cbz = O=C(OCc1ccccc1)*

Molecular target: T1, His6-AspH315–758 (human aspartate/asparagine-β-hydroxylase, AspH) (Homo sapiens, UniProt Q12797)
T1 construct: N-Terminally His6-tagged human AspH315–758 (His6-AspH315–758) was produced in E. coli BL21 (DE3) cells; made in house; host or cells: E. coli BL21 (DE3), pET-28a(+) vector
T1 sequence (Q12797 315-758): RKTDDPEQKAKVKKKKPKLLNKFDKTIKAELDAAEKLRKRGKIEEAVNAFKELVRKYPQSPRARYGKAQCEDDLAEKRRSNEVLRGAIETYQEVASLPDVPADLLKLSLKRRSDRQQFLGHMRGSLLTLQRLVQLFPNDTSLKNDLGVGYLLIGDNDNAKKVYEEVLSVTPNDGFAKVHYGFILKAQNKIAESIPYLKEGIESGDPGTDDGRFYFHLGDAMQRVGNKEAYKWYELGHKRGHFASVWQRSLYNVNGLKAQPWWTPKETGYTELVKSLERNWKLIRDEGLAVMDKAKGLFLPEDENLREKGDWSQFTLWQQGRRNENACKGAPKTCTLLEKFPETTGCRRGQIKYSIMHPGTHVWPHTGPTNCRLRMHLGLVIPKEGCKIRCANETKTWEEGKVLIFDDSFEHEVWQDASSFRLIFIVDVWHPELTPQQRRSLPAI
Assay: SPE-MS AspH inhibition assay (LOPAC screen at fixed 20 μM and IC50 dose-response), hydroxylation of cyclic peptide hFX-CP101–119
Format: biochemical
Settings: for IC50: 50 nM His6-AspH315–758, 1.0 μM hFX-CP101–119, 3 μM 2OG, 2 μM Fe(II), 50 mM HEPES pH 7.5, 20 °C, mean ± SD, n = 2 (2,4-PDCA n = 10), read-out: IC50

[1] = LOPAC compound at 20uM, plate 3, conversion of substrate peptide
[2] = LOPAC compound at fixed 20 uM, plate 1, normalised to DMSO and 2,4-PDCA controls
[3] = LOPAC compound at fixed 20 uM, substrate conversion, plate 1
[4] = LOPAC compound at 20uM, plate 2, conversion of substrate peptide
[5] = AspH activity, fixed compound concentration 20 μM, initial LOPAC screen, 0.5%v/v DMSO, read-out: Inhibition at 20 µM [%]

O=C(O)[C@@H]1CCN1 [L-azetidine-2-carboxylic acid]
Plate 1 (% conversion): 39.44% | Plate 1 (% inhibition): -10.62%

CSc1ccccc1N1CCN(CCCCCC(=O)NC2CCCc3ccccc32)CC1 (stereo not shown) [LP44]
Plate 3 (% conversion) [1]: 36.33%

Cl.O=C(CCCCCN1CCN(c2ccccc2-c2ccccc2)CC1)NC1CCCc2ccccc21 (stereo not shown) [LP 12 hydrochloride hydrate]
% inhibition (LOPAC Plate 4, compound at 20 uM): -43.43% | % conversion (LOPAC Plate 4, compound at 20 uM, substrate conversion): 51.29%

CC(CCc1ccccc1)NCC(O)c1ccc(O)c(C(N)=O)c1 (stereo not shown) [Labetalol hydrochloride]
Plate 3 (% conversion) [1]: 36.38%

Nc1nnc(-c2cccc(Cl)c2Cl)c(N)n1 [Lamotrigine]
Plate 3 (% conversion) [1]: 33.75%

Cc1oncc1C(=O)Nc1ccc(C(F)(F)F)cc1 [Leflunomide]
Plate 3 (% conversion) [1]: 37.93%

COC(=O)C1=C(C)NC(C)=C(C(=O)OC(C)(C)CN(C)CCC(c2ccccc2)c2ccccc2)C1c1cccc([N+](=O)[O-])c1.COC(=O)C1=C(C)NC(C)=C(C(=O)OC(C)(C)CN(C)CCC(c2ccccc2)c2ccccc2)C1c1cccc([N+](=O)[O-])c1.Cl.Cl.O (stereo not shown) [Lercanidipine hydrochloride hemihydrate]
Plate 1 (% inhibition) [2]: 25.41% | Plate 1 (% conversion) [3]: 27.34%

CC[C@@H](C(N)=O)N1CCCC1=O [Levetiracetam]
Plate 3 (% conversion): 34.85%

CC(=O)NC[C@H]1CN(c2ccc(N3CCOCC3)c(F)c2)C(=O)O1 [Linezolid]
Plate 1 (% inhibition) [2]: -10.54% | Plate 1 (% conversion) [3]: 39.41% | Plate 5 (% inhibition) (plate 5 (Pfitzer), test compounds at fixed 20 μM): 44.21% | Plate 5 (% conversion) (plate 5 (Pfitzer), test compounds at fixed 20 μM, mean conversion DMSO 32.88): 21.27%

O=C1N(c2ccccc2)c2ccccc2C1(Cc1ccncc1)Cc1ccncc1 [Linopirdine]
Plate 3 (% conversion) [1]: 41.24%

[Cl-].[Li+] [Lithium Chloride]
Plate 2 (% conversion): 35.61% | Plate 2 (% inhibition) (20 µM): 1.04%

CCn1cc(C(=O)O)c(=O)c2cc(F)c(N3CCNC(C)C3)c(F)c21 (stereo not shown) [Lomefloxacin hydrochloride]
Plate 3 (% conversion) [1]: 37.37%

Nc1nc2c(c(=O)[nH]1)C[C@@H](CCc1ccc(C(=O)N[C@@H](CCC(=O)O)C(=O)O)cc1)CN2.O [Lometrexol hydrate]
Plate 3 (% conversion): 27.08%

CCCCCN(CCCCC)C(=O)C(CCC(=O)O)NC(=O)c1ccc(Cl)c(Cl)c1 (stereo not shown) [Lorglumide sodium]
Plate 3 (% conversion) [1]: 33.56%

CCCCN(CCCC)CC(O)c1cc(Cl)cc2c1-c1ccc(Cl)cc1/C2=C/c1ccc(Cl)cc1 (stereo not shown) [Lumefantrine]
Plate 1 (% inhibition) [2]: -1.89% | Plate 1 (% conversion) [3]: 36.51%

CC1(N2CCC(n3c([C@@H]4CCCNC4)nc4ccccc43)CC2)CCCCCCC1 [MCOPPB]
Plate 5 (% conversion): 39.16% | Plate 5 (% inhibition): -8.35%

CC(C)[C@H](NC(=O)OCc1ccccc1)C(=O)N[C@H](C=O)Cc1ccccc1 [MDL 28170] (Cbz-Val-Phe-aldehyde)
Plate 3 (% conversion) [1]: 33.83%

CC[N+](CC)(CC)CCOc1ccc(/C=C/c2ccccc2)cc1 [MG 624]
Plate 3 (% conversion) [1]: 29.92%

CC(C)c1ccc2c(c1)c(SC(C)(C)C)c(CC(C)(C)C(=O)O)n2Cc1ccc(Cl)cc1 [MK-886, reference compound]
IC50: 8.58 ± 1.93 µM | Inhibition at 20 µM [%] (AspH activity, fixed compound concentration 20 μM, initial LOPAC screen, 0.5%v/v DMSO): 99.9%

CN1CC[C@]2(CCN3CCc4c(oc5ccccc45)[C@@H]3C2)N(C)C1=O.Cl [MK-912]
Plate 3 (% conversion) [1]: 38.39%

CN(C)CCCNC(=O)c1ccc(-c2cc(O)c3ncccc3c2)cc1 [ML324, reference compound]
IC50: 4.65 ± 1.28 µM

O=[N+]([O-])/C=C/c1ccc2c(c1)OCO2 [MNS]
Plate 2 (% conversion) [4]: 25.80% | Plate 2 (% inhibition) (LOPAC compound at 20uM, plate 2, normalised to DMSO and 2,4-PDCA controls): 30.34%

CNCCCC12CCC(c3ccccc31)c1ccccc12 [Maprotiline hydrochloride]
Plate 3 (% conversion) [1]: 42.77%

C[N+](C)(C)CC#CCOC(=O)Nc1cccc(Cl)c1.[Cl-] [McN-A-343]
Plate 1 (% inhibition) [2]: -1.57% | Plate 1 (% conversion) [3]: 36.40%

CNC1(C)C2CCC(C2)C1(C)C (stereo not shown) [Mecamylamine hydrochloride]
Plate 3 (% conversion) [1]: 34.21%

Cc1ccc(Cl)c(Nc2ccccc2C(=O)O)c1Cl [Meclofenamic acid sodium]
Plate 3 (% conversion) [1]: 31.27%

Cc1cnc(NC(=O)C2=C(O)c3ccccc3S(=O)(=O)N2C)s1 [Meloxicam sodium]
Plate 3 (% conversion) [1]: 33.11%

CC(C)NCC(O)c1cc(O)cc(O)c1.CC(C)NCC(O)c1cc(O)cc(O)c1.O=S(=O)(O)O (stereo not shown) [Metaproterenol hemisulfate]
Plate 3 (% conversion) [1]: 40.68%

CN1C[C@H](CNC(=O)OCc2ccccc2)C[C@@H]2c3cccc4c3c(cn4C)C[C@H]21 [Metergoline]
Plate 3 (% conversion) [1]: 47.43%

CSc1ccc2c(c1)C(N1CCN(C)CC1)Cc1ccccc1S2 (stereo not shown) [Methiothepin mesylate]
Plate 3 (% conversion) [1]: 47.65%

CN(Cc1cnc2nc(N)nc(N)c2n1)c1ccc(C(=O)N[C@@H](CCC(=O)O)C(=O)O)cc1.O [Methotrexate hydrate]
Plate 1 (% inhibition) [2]: -3.72% | Plate 1 (% conversion) [3]: 37.12%

COc1ccc(OC)c(C(O)C(C)N)c1 (stereo not shown) [Methoxamine hydrochloride]
Plate 3 (% conversion): 32.85%

CCN(CC)CCNC(=O)c1cc(Cl)c(N)cc1OC.Cl [Metoclopramide hydrochloride]
Plate 3 (% conversion) [1]: 35.20%

Cc1ccccc1N1C(=O)c2cc(S(N)(=O)=O)c(Cl)cc2NC1C (stereo not shown) [Metolazone]
Plate 2 (% conversion) [4]: 34.23% | inhibition at 20 µM (LOPAC compound at 20uM, plate 2, normalised to DMSO and 2,4-PDCA controls, read-out: Plate 2 (% inhibition)): 5.16% | Plate 3 (% conversion) [1]: 30.85%

CC[C@H](C)C(=O)O[C@H]1CCC=C2C=C[C@H](C)[C@H](CC[C@@H]3C[C@@H](O)CC(=O)O3)[C@H]21 [Mevastatin]
Plate 3 (% conversion) [1]: 41.68%

CN1CCN2c3ccccc3Cc3ccccc3C2C1 (stereo not shown) [Mianserin hydrochloride]
Plate 3 (% conversion) [1]: 43.45%

COCC(=O)O[C@]1(CCN(C)CCCc2nc3ccccc3[nH]2)CCc2cc(F)ccc2[C@@H]1C(C)C [Mibefradil dihydrochloride]
Plate 3 (% conversion) [1]: 62.31%

Cc1[nH]c(=O)c(C#N)cc1-c1ccncc1 [Milrinone]
Plate 3 (% conversion) [1]: 40.58%

CN(C)c1ccc(O)c2c1C[C@H]1C[C@H]3[C@H](N(C)C)C(O)=C(C(N)=O)C(=O)[C@@]3(O)C(O)=C1C2=O [Minocycline hydrochloride]
Plate 3 (% conversion) [1]: 8.64%

O=C([O-])[C@H](CC(=O)N1C[C@H]2CCCC[C@H]2C1)Cc1ccccc1.O=C([O-])[C@H](CC(=O)N1C[C@H]2CCCC[C@H]2C1)Cc1ccccc1.[Ca+2] [Mitiglinide calcium]
Plate 3 (% conversion) [1]: 39.51%

NC(=O)c1ncn([C@@H]2O[C@H](CO)[C@@H](O)[C@H]2O)c1O [Mizoribine]
Plate 3 (% conversion) [1]: 41.03%

O=C(NCCN1CCOCC1)c1ccc(Cl)cc1 [Moclobemide]
Plate 3 (% conversion) [1]: 38.98%

O=c1c(-n2ccnn2)c[nH]n1-c1cc(N2CCOCC2)ncn1 [Molidustat, molidustat, reference compound]
IC50: 13.4 ± 1 µM

CCc1c(C)[nH]c2c1C(=O)C(CN1CCOCC1)CC2 (stereo not shown) [Molindone hydrochloride]
Plate 3 (% conversion) [1]: 42.00%

CCOC(=O)[N-]c1cn(N2CCOCC2)n[o+]1 [Molsidomine]
Plate 3 (% conversion): 34.83%

O=c1c(O)c(-c2ccc(O)cc2O)oc2cc(O)cc(O)c12 [Morin, reference compound]
inhibition at 20 µM [5]: 101%

CC(=O)Oc1cc(C(C)C)c(OCCN(C)C)cc1C [Moxisylyte hydrochloride]
Plate 3 (% conversion) [1]: 37.49%

COc1nc(C)nc(Cl)c1NC1=NCCN1.Cl [Moxonidine hydrochloride]
Plate 3 (% conversion) [1]: 33.12%

Br.NCc1cc(O)no1 [Muscimol hydrobromide]
Plate 2 (% conversion): 37.87% | Plate 2 (% inhibition) (20 µM): -5.71%

O=c1c(O)c(-c2cc(O)c(O)c(O)c2)oc2cc(O)cc(O)c12 [Myricetin, reference compound]
Plate 3 (% conversion): 2.65% | inhibition at 20 µM [5]: 99.4%
